Test results taken from patent publication US12239134B2, “Plant antimicrobial compositions including an emulsifier and/or ozone and methods of use” (Arizona Board of Regents on Behalf of The University of …, priority 2018, dated 2025).
Read-outs that look alike come from different tables or passages of the source.

Legend:
S. Newport = conditions: used alone, previous work, cited from earlier work
Salmonella Newport = assay: Biofilm formation on food contact surface coupons, direct plating; type: cell-based, Salmonella enterica; conditions: two-minute treatment
Experimental: A protocol based on direct plating was also evaluated for testing the biofilm formation by Salmonella or L. monocytogenes. Biofilms were formed on three different food contact surface coupons (HDPE, Buna-N rubber, and 316 stainless steel) for up to 3 days in 35 mm mini-petri dishes. Biofilms were formed using a 1:10 diluted TSB solution (10 mL) with either S. enterica or L. monocytogenes inoculum (100 μL). The diluted TSB was changed every 16-18 hours with new 1:10 diluted TSB (10 mL). Coupons were removed for sampling and enumeration of strongly attached bacteria at three different time points (Day 0, 1, and 3). The coupons were rinsed with deionized water five times to remove planktonic cells. Then the coupons were immersed in 10 mL of BPW. The coupons were sonicated for 2 minutes using different settings (Tables 11 and 12) for each organism. After sonication, the solution was serially diluted and plated on Tryptic Soy Agar (TSA). Plates were incubated at 37° C. for 24-48 hours. The colonies were counted and the colony forming units were determined for the various sonication settings, so that the appropriate setting with the most recovery could be determined. […] These settings were used in further experiments to recover the bacterial cells from coupons during sampling and enumeration (by spread plating) of the bacteria in biofilms.
The reduction in bacterial biofilm formation was also tested using a direct plating method. Biofilms were formed on six different food contact surface coupons (HDPE, Buna-N rubber, PC, PVC, and stainless steel 304 and 316) in separate 35 mm mini-petri dishes and evaluated at three different time points (Day 0, 1, and 3). Biofilms were formed using a 1:10 diluted TSB solution (10 mL) with either S. enterica or L. monocytogenes inoculum (100 μL). The coupons were also washed and treated with antimicrobial solutions containing the plant-based emulsifier and the essential oil/plant extracts at various concentrations. The diluted TSB was changed every 16-18 hours with new 1:10 diluted TSB (10 mL). The coupons were rinsed in the antimicrobial solution before adding them to the petri dishes containing the fresh, diluted TSB. After their specific time points, coupons were removed aseptically using sterile forceps from the petri dish. The coupons were rinsed by submerging in 25 mL of sterile deionized H2O and swirled five times to remove planktonic cells. After rinsing, they were placed into a new petri dish immersed in 10 mL of BPW. The coupons were sonicated for 2 minutes on ice using different settings for each organism. After sonication, the sonicated solution was serially diluted using 0.1% peptone water and spread plated on TSA in duplicate. Plates were incubated overnight at 37° C. for 24-48 hours, after which, the colonies were counted, to establish the efficacy of the antimicrobial solutions (Tables 17-25).

Cc1ccc(C(C)C)cc1O [Carvacrol, carvacrol]
reduction of S. Newport on iceberg lettuce (S. Newport; 0.1%): 1 log CFU/g
reduction of S. Newport on iceberg lettuce (S. Newport; 0.3%): over 5 log CFU/g
reduction of S. Newport on iceberg lettuce (S. Newport; 0.5%): over 5 log CFU/g
Survivors of Salmonella Newport on food contact surface (Salmonella Newport; 0.5% with 0.0001% saponin microemulsion, Day 0, 304 SS): 4.75 Log CFU/mL
Survivors of Salmonella Newport on food contact surface (Salmonella Newport; 0.5% with 0.0001% saponin microemulsion, Day 0, 316 SS): 4.66 Log CFU/mL
Survivors of Salmonella Newport on food contact surface (Salmonella Newport; 0.5% with 0.0001% saponin microemulsion, Day 0, Buna N): 4.19 Log CFU/mL
Survivors of Salmonella Newport on food contact surface (Salmonella Newport; 0.5% with 0.0001% saponin microemulsion, Day 0, HDPE): <1 Log CFU/mL
Survivors of Salmonella Newport on food contact surface (Salmonella Newport; 0.5% with 0.0001% saponin microemulsion, Day 0, PC): <1 Log CFU/mL
Survivors of Salmonella Newport on food contact surface (Salmonella Newport; 0.5% with 0.0001% saponin microemulsion, Day 0, PVC): 2.74 Log CFU/mL
Survivors of Salmonella Newport on food contact surface (Salmonella Newport; 0.5% with 0.0001% saponin microemulsion, Day 1, 304 SS): 4.26 Log CFU/mL
Survivors of Salmonella Newport on food contact surface (Salmonella Newport; 0.5% with 0.0001% saponin microemulsion, Day 1, 316 SS): 4.42 Log CFU/mL
Survivors of Salmonella Newport on food contact surface (Salmonella Newport; 0.5% with 0.0001% saponin microemulsion, Day 1, Buna N): 4.65 Log CFU/mL
Survivors of Salmonella Newport on food contact surface (Salmonella Newport; 0.5% with 0.0001% saponin microemulsion, Day 1, HDPE): <1 Log CFU/mL
Survivors of Salmonella Newport on food contact surface (Salmonella Newport; 0.5% with 0.0001% saponin microemulsion, Day 1, PC): <1 Log CFU/mL
Survivors of Salmonella Newport on food contact surface (Salmonella Newport; 0.5% with 0.0001% saponin microemulsion, Day 1, PVC): 4.24 Log CFU/mL
Survivors of Salmonella Newport on food contact surface (Salmonella Newport; 0.5% with 0.0001% saponin microemulsion, Day 3, 304 SS): <1 Log CFU/mL
Survivors of Salmonella Newport on food contact surface (Salmonella Newport; 0.5% with 0.0001% saponin microemulsion, Day 3, 316 SS): <1 Log CFU/mL
Survivors of Salmonella Newport on food contact surface (Salmonella Newport; 0.5% with 0.0001% saponin microemulsion, Day 3, Buna N): <1 Log CFU/mL
Survivors of Salmonella Newport on food contact surface (Salmonella Newport; 0.5% with 0.0001% saponin microemulsion, Day 3, HDPE): <1 Log CFU/mL
Survivors of Salmonella Newport on food contact surface (Salmonella Newport; 0.5% with 0.0001% saponin microemulsion, Day 3, PC): <1 Log CFU/mL
Survivors of Salmonella Newport on food contact surface (Salmonella Newport; 0.5% with 0.0001% saponin microemulsion, Day 3, PVC): <1 Log CFU/mL
Survivors of Salmonella Newport on food contact surface (Salmonella Newport; 0.7% with 0.0001% saponin microemulsion, Day 0, 304 SS): 4.57 Log CFU/mL
Survivors of Salmonella Newport on food contact surface (Salmonella Newport; 0.7% with 0.0001% saponin microemulsion, Day 0, 316 SS): 4.24 Log CFU/mL
Survivors of Salmonella Newport on food contact surface (Salmonella Newport; 0.7% with 0.0001% saponin microemulsion, Day 0, Buna N): 4.44 Log CFU/mL
Survivors of Salmonella Newport on food contact surface (Salmonella Newport; 0.7% with 0.0001% saponin microemulsion, Day 0, HDPE): 4.24 Log CFU/mL
Survivors of Salmonella Newport on food contact surface (Salmonella Newport; 0.7% with 0.0001% saponin microemulsion, Day 0, PC): 4.18 Log CFU/mL
Survivors of Salmonella Newport on food contact surface (Salmonella Newport; 0.7% with 0.0001% saponin microemulsion, Day 0, PVC): 4.63 Log CFU/mL
Survivors of Salmonella Newport on food contact surface (Salmonella Newport; 0.7% with 0.0001% saponin microemulsion, Day 1, 304 SS): <1 Log CFU/mL
Survivors of Salmonella Newport on food contact surface (Salmonella Newport; 0.7% with 0.0001% saponin microemulsion, Day 1, 316 SS): <1 Log CFU/mL
Survivors of Salmonella Newport on food contact surface (Salmonella Newport; 0.7% with 0.0001% saponin microemulsion, Day 1, Buna N): <1 Log CFU/mL
Survivors of Salmonella Newport on food contact surface (Salmonella Newport; 0.7% with 0.0001% saponin microemulsion, Day 1, HDPE): <1 Log CFU/mL
Survivors of Salmonella Newport on food contact surface (Salmonella Newport; 0.7% with 0.0001% saponin microemulsion, Day 1, PC): <1 Log CFU/mL
Survivors of Salmonella Newport on food contact surface (Salmonella Newport; 0.7% with 0.0001% saponin microemulsion, Day 1, PVC): <1 Log CFU/mL
Survivors of Salmonella Newport on food contact surface (Salmonella Newport; 0.7% with 0.0001% saponin microemulsion, Day 3, 304 SS): <1 Log CFU/mL
Survivors of Salmonella Newport on food contact surface (Salmonella Newport; 0.7% with 0.0001% saponin microemulsion, Day 3, 316 SS): <1 Log CFU/mL
Survivors of Salmonella Newport on food contact surface (Salmonella Newport; 0.7% with 0.0001% saponin microemulsion, Day 3, Buna N): <1 Log CFU/mL
Survivors of Salmonella Newport on food contact surface (Salmonella Newport; 0.7% with 0.0001% saponin microemulsion, Day 3, HDPE): <1 Log CFU/mL
Survivors of Salmonella Newport on food contact surface (Salmonella Newport; 0.7% with 0.0001% saponin microemulsion, Day 3, PC): <1 Log CFU/mL
Survivors of Salmonella Newport on food contact surface (Salmonella Newport; 0.7% with 0.0001% saponin microemulsion, Day 3, PVC): <1 Log CFU/mL
Survivors of Salmonella Newport on food contact surface (Salmonella Newport; 1% with 0.0001% saponin microemulsion, Day 0, 304 SS): <1 Log CFU/mL
Survivors of Salmonella Newport on food contact surface (Salmonella Newport; 1% with 0.0001% saponin microemulsion, Day 0, 316 SS): <1 Log CFU/mL
Survivors of Salmonella Newport on food contact surface (Salmonella Newport; 1% with 0.0001% saponin microemulsion, Day 0, Buna N): <1 Log CFU/mL
Survivors of Salmonella Newport on food contact surface (Salmonella Newport; 1% with 0.0001% saponin microemulsion, Day 0, HDPE): <1 Log CFU/mL
Survivors of Salmonella Newport on food contact surface (Salmonella Newport; 1% with 0.0001% saponin microemulsion, Day 0, PC): <1 Log CFU/mL
Survivors of Salmonella Newport on food contact surface (Salmonella Newport; 1% with 0.0001% saponin microemulsion, Day 0, PVC): <1 Log CFU/mL
Survivors of Salmonella Newport on food contact surface (Salmonella Newport; 1% with 0.0001% saponin microemulsion, Day 1, 304 SS): <1 Log CFU/mL
Survivors of Salmonella Newport on food contact surface (Salmonella Newport; 1% with 0.0001% saponin microemulsion, Day 1, 316 SS): <1 Log CFU/mL
Survivors of Salmonella Newport on food contact surface (Salmonella Newport; 1% with 0.0001% saponin microemulsion, Day 1, Buna N): <1 Log CFU/mL
Survivors of Salmonella Newport on food contact surface (Salmonella Newport; 1% with 0.0001% saponin microemulsion, Day 1, HDPE): <1 Log CFU/mL
Survivors of Salmonella Newport on food contact surface (Salmonella Newport; 1% with 0.0001% saponin microemulsion, Day 1, PC): <1 Log CFU/mL
Survivors of Salmonella Newport on food contact surface (Salmonella Newport; 1% with 0.0001% saponin microemulsion, Day 1, PVC): <1 Log CFU/mL
Survivors of Salmonella Newport on food contact surface (Salmonella Newport; 1% with 0.0001% saponin microemulsion, Day 3, 304 SS): <1 Log CFU/mL
Survivors of Salmonella Newport on food contact surface (Salmonella Newport; 1% with 0.0001% saponin microemulsion, Day 3, 316 SS): <1 Log CFU/mL
Survivors of Salmonella Newport on food contact surface (Salmonella Newport; 1% with 0.0001% saponin microemulsion, Day 3, Buna N): <1 Log CFU/mL
Survivors of Salmonella Newport on food contact surface (Salmonella Newport; 1% with 0.0001% saponin microemulsion, Day 3, HDPE): <1 Log CFU/mL
Survivors of Salmonella Newport on food contact surface (Salmonella Newport; 1% with 0.0001% saponin microemulsion, Day 3, PC): <1 Log CFU/mL
Survivors of Salmonella Newport on food contact surface (Salmonella Newport; 1% with 0.0001% saponin microemulsion, Day 3, PVC): <1 Log CFU/mL
